Experimental data published in the supplement of paper PMC10307832.

Tests used:
Assay in all cases: relative viability (nuclei count vs DMSO), 5 days (fraction); higher = more cells survive
A-427 = test system: A-427
Procedure, shortened: (§1)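 One day after seeding in 1536-well plates, lung cancer cell lines were dosed by pin tool. Dosing was either single-drug or a fixed anchor-drug dose plus five library-drug doses (not always all listed) in √10 steps. After 5 days, nuclei were stained in one fix-and-stain step and counted on 4× images, and relative viability is the nuclei count of treated wells over that of vehicle wells, given as the median of duplicate plates.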

CAL-12T = test system: CAL-12T
Procedure, shortened: as §1

EPLC-272H = test system: EPLC-272H
Procedure, shortened: as §1

HOP-62 = test system: HOP-62
Procedure, shortened: as §1

LCLC-103H = test system: LCLC-103H
Procedure, shortened: as §1

LXF-289 = test system: LXF-289
Procedure, shortened: as §1

NCI-H1395 = test system: NCI-H1395
Procedure, shortened: as §1

NCI-H1651 = test system: NCI-H1651
Procedure, shortened: as §1

NCI-H1975 = test system: NCI-H1975
Procedure, shortened: as §1

NCI-H1993 = test system: NCI-H1993
Procedure, shortened: as §1

NCI-H2085 = test system: NCI-H2085
Procedure, shortened: as §1

NCI-H2087 = test system: NCI-H2087
Procedure, shortened: as §1

NCI-H2170 = test system: NCI-H2170
Procedure, shortened: as §1

NCI-H3122 = test system: NCI-H3122
Procedure, shortened: as §1

NCI-H596 = test system: NCI-H596
Procedure, shortened: as §1

NCI-H647 = test system: NCI-H647
Procedure, shortened: as §1

NCI-H650 = test system: NCI-H650
Procedure, shortened: as §1

PC-14 = test system: PC-14
Procedure, shortened: as §1

RERF-LC-KJ = test system: RERF-LC-KJ
Procedure, shortened: as §1

Compound O=c1[nH]c2ccccc2n1C1CCN(CCCC(c2ccc(F)cc2)c2ccc(F)cc2)CC1 [Pimozide] + NC(=O)Nc1cc(-c2cccc(F)c2)sc1C(=O)N[C@H]1CCCNC1 [AZD7762] (partner 0.2 µM) has a relative viability (A-427; first compound 0.08 µM) of 0.711, a relative viability (A-427; first compound 0.253 µM) of 0.703 and a relative viability (A-427; first compound 0.8 µM) of 0.764. The relative viability (A-427; first compound 2.53 µM) was 0.637, the relative viability (A-427; first compound 8 µM) was 0.676 and the relative viability (CAL-12T; first compound 0.08 µM) was 0.64. It also gave a relative viability (CAL-12T; first compound 0.253 µM) of 0.587, a relative viability (CAL-12T; first compound 0.8 µM) of 0.539 and a relative viability (CAL-12T; first compound 2.53 µM) of 0.511. For the same compound, the relative viability (CAL-12T; first compound 8 µM) was 0.587, the relative viability (EPLC-272H; first compound 0.08 µM) was 0.229 and the relative viability (EPLC-272H; first compound 0.253 µM) was 0.163. It also gave a relative viability (EPLC-272H; first compound 0.8 µM) of 0.265, a relative viability (EPLC-272H; first compound 2.53 µM) of 0.289 and a relative viability (EPLC-272H; first compound 8 µM) of 0.282. For the same compound, the relative viability (HOP-62; first compound 0.08 µM) was 0.634, the relative viability (HOP-62; first compound 0.253 µM) was 0.477 and the relative viability (HOP-62; first compound 2.53 µM) was 0.661. For the same compound, the relative viability (HOP-62; first compound 8 µM) was 0.517, the relative viability (LCLC-103H; first compound 0.08 µM) was 0.743 and the relative viability (LCLC-103H; first compound 0.253 µM) was 0.778. For the same compound, the relative viability (LCLC-103H; first compound 0.8 µM) was 0.733, the relative viability (LCLC-103H; first compound 2.53 µM) was 0.802 and the relative viability (LCLC-103H; first compound 8 µM) was 0.686. The relative viability (LXF-289; first compound 0.08 µM) was 1.07, the relative viability (LXF-289; first compound 0.253 µM) was 1.1 and the relative viability (LXF-289; first compound 0.8 µM) was 1.08. The relative viability (LXF-289; first compound 2.53 µM) was 1.13, the relative viability (LXF-289; first compound 8 µM) was 0.962 and the relative viability (NCI-H1395; first compound 0.08 µM) was 0.369. For the same compound, the relative viability (NCI-H1395; first compound 0.253 µM) was 0.42, the relative viability (NCI-H1395; first compound 0.8 µM) was 0.417 and the relative viability (NCI-H1395; first compound 2.53 µM) was 0.389. It also gave a relative viability (NCI-H1395; first compound 8 µM) of 0.394, a relative viability (NCI-H1651; first compound 0.08 µM) of 0.453 and a relative viability (NCI-H1651; first compound 0.253 µM) of 0.423. For the same compound, the relative viability (NCI-H1651; first compound 0.8 µM) was 0.41, the relative viability (NCI-H1651; first compound 2.53 µM) was 0.433 and the relative viability (NCI-H1651; first compound 8 µM) was 0.469. The relative viability (NCI-H1975; first compound 0.08 µM) was 0.691, the relative viability (NCI-H1975; first compound 0.253 µM) was 0.635 and the relative viability (NCI-H1975; first compound 0.8 µM) was 0.684. For the same compound, the relative viability (NCI-H1975; first compound 2.53 µM) was 0.649, the relative viability (NCI-H1975; first compound 8 µM) was 0.766 and the relative viability (NCI-H1993; first compound 0.08 µM) was 0.701. The relative viability (NCI-H1993; first compound 0.253 µM) was 0.752, the relative viability (NCI-H1993; first compound 0.8 µM) was 0.544 and the relative viability (NCI-H1993; first compound 2.53 µM) was 0.675. The relative viability (NCI-H1993; first compound 8 µM) was 0.729, the relative viability (NCI-H2085; first compound 0.08 µM) was 0.937 and the relative viability (NCI-H2085; first compound 0.253 µM) was 0.971. For the same compound, the relative viability (NCI-H2085; first compound 0.8 µM) was 0.922, the relative viability (NCI-H2085; first compound 2.53 µM) was 1.07 and the relative viability (NCI-H2085; first compound 8 µM) was 0.953. The relative viability (NCI-H2087; first compound 0.08 µM) was 1.27, the relative viability (NCI-H2087; first compound 0.253 µM) was 1.31 and the relative viability (NCI-H2087; first compound 2.53 µM) was 1.22. The relative viability (NCI-H2087; first compound 8 µM) was 1.25, the relative viability (NCI-H2170; first compound 0.08 µM) was 0.875 and the relative viability (NCI-H2170; first compound 0.253 µM) was 0.828. The relative viability (NCI-H2170; first compound 0.8 µM) was 0.85, the relative viability (NCI-H2170; first compound 2.53 µM) was 0.915 and the relative viability (NCI-H2170; first compound 8 µM) was 0.802. The relative viability (NCI-H3122; first compound 0.08 µM) was 0.977, the relative viability (NCI-H3122; first compound 0.253 µM) was 0.882 and the relative viability (NCI-H3122; first compound 0.8 µM) was 0.963. The relative viability (NCI-H3122; first compound 2.53 µM) was 1.05, the relative viability (NCI-H3122; first compound 8 µM) was 0.825 and the relative viability (NCI-H596; first compound 0.08 µM) was 1.17. The relative viability (NCI-H596; first compound 0.253 µM) was 1.31, the relative viability (NCI-H596; first compound 0.8 µM) was 1.31 and the relative viability (NCI-H596; first compound 2.53 µM) was 1.19. It also gave a relative viability (NCI-H596; first compound 8 µM) of 1.04, a relative viability (NCI-H647; first compound 0.08 µM) of 0.46 and a relative viability (NCI-H647; first compound 0.253 µM) of 0.26. It also gave a relative viability (NCI-H647; first compound 0.8 µM) of 0.245, a relative viability (NCI-H647; first compound 2.53 µM) of 0.409 and a relative viability (NCI-H647; first compound 8 µM) of 0.532. It also gave a relative viability (NCI-H650; first compound 0.08 µM) of 1.17, a relative viability (NCI-H650; first compound 0.253 µM) of 0.983 and a relative viability (NCI-H650; first compound 0.8 µM) of 0.831. The relative viability (NCI-H650; first compound 2.53 µM) was 0.909, the relative viability (NCI-H650; first compound 8 µM) was 0.693 and the relative viability (PC-14; first compound 0.253 µM) was 0.348. It also gave a relative viability (PC-14; first compound 0.8 µM) of 0.271, a relative viability (PC-14; first compound 2.53 µM) of 0.328 and a relative viability (PC-14; first compound 8 µM) of 0.402. For the same compound, the relative viability (RERF-LC-KJ; first compound 0.08 µM) was 0.91, the relative viability (RERF-LC-KJ; first compound 0.253 µM) was 0.866 and the relative viability (RERF-LC-KJ; first compound 0.8 µM) was 0.806. For the same compound, the relative viability (RERF-LC-KJ; first compound 2.53 µM) was 0.757 and the relative viability (RERF-LC-KJ; first compound 8 µM) was 0.81.
